The text below walks through data of patent publication US20230233500A1, “Gasdermin D (GSDMD) Succination for the Treatment of Inflammatory Disease” (University of Massachusetts, priority 2020, published 2023).

Where a name gives a salt, the structure may show the parent alone.

Experiment [1] concerns human THP1. Kind of experiment: LPS-Nig induced cell death and LDH release in THP1 cells. As to conditions: PMA-differentiated THP1, fumarate 25 μM; for LPS-Nig induced cell death: SYTOX Orange. The class given is cell-based. How it is done: FIGS. 6A-G. Fumarate inhibits pyroptosis in Human cells. (A-B) Representative images (A) and kinetic data (B) of SYTOX Orange and Hoechst-stained PMA-differentiated THP1 cells treated with LPS for 2 hours, DMSO (vehicle) or fumarate (25 μM) for 1 hour and nigericin (10 μM) for 6 hours. (C) LDH release from (A). (D-E) Kinetic cell death data of SYTOX Orange and Hoechst stained (D) or LDH assay of conditioned medium from primary CD14+ positive monocytes treated with LPS for 2 hours DMSO (vehicle) or fumarate (25 μM) for 1 hour and nigericin (10 μM) for 6 hours. (F) LC/MS quantification of fumarate in WT BMDMs treated with LPS for 2 hours, FHIN1 for 1 hour and nigericin for 1 hour. (G) Representative images of WT primary BMDMs stained with SYTOX Orange and Hoechst following treatment with LPS for 2 hours, DMSO (vehicle) or fumarate (25 μM) or FHIN1 (25 μM) for 1 hour and nigericin for a timecourse of 6 hours. A, B, D, G are representative of 3 independent experiments. C, E, F are pooled data from 3 independent experiments. ***, P<0.001, ****, P<0.00001 (Students t-test). Error bars show mean±SD (B, D) or SEM (C, E). Human kidney cell line HEK293T was cultured in Dulbecco's modified Eagle's medium supplemented with 10% (v/v) fetal bovine serum, 100 U/ml penicillin and 100 µg/ml streptomycin. Human peripheral blood monocyte cell line, THP1 cells were cultured in RPMI-1640 medium supplemented with 10% (v/v) fetal bovine serum, 100 U/ml penicillin and 100 µg/ml streptomycin. For isolation of BMDMs, tibias and femurs were removed from wild type and GsdmD^−/− mice and bone marrow was flushed with complete DMEM-medium. Cells were plated in medium containing 20% (v/v) conditioned medium of L929 mouse fibroblasts cultured for 7 days at 37° C. in a humidified atmosphere of 5% C02. Medium was replaced every 3 days. Cells were plated, treated and incubated in phenol red free medium. Following treatment medium was collected and assessed for LDH release using the CytoTox96 non-radioactive cytotoxicity assay (Promega) as per manufacturer's instructions. […]
(LDH leaks from cells whose membrane has failed.)

For experiment [2], the system named is LPS septic shock in WT mice. The experiment in a line: LPS septic shock model. The class given is in vivo, mouse. The method, then: FIGS. 1A-L. Fumarate inhibits pyroptosis. Bone marrow-derived macrophages (BMDMs) were treated as indicated and LDH, IL-1β or TNF-α measured by ELISA (A-C), GSDMD/β-actin by immunoblotting (D) or permeabilization of cells to SYTOX orange (E-F). GSDMD oligomerization in native and reduced cell lysates treated as above (G). Timecourse of permeabilization to SYTOX orange or GSDMD-N formation in cells treated as indicated (H-I). Survival rates of WT mice after 50 mg/kg of LPS (n−10) or LPS+fumarate (n=9) (J). Levels of IL-1β or TNF-α from serum of WT mice at 5 hours post-intraperitoneal injection with 5 mg/kg LPS (n=6) or control PBS (n=3) (K, L). A, B, C, I and are pooled from three independent experiments. D, E, F, G, H and I are representative from three independent experiments. J, K, L data points indicate individual mice. *, P<0.05, **, P<0.01; ***, P<0.001; ****, P<0.0001) (J, Mantel Cox survival analysis; A-C, K Two-way ANOVA). Error bars show means±SEM.
FIGS. 8A-B. Fumarate inhibits pyroptosis in vivo. (A-B) LC/MS Fumarate quantification in splenocytes (A) and IL-1 ELISA analysis (B) in serum from WT C57/BL6 mice administered FHIN2 (50 mg/kg) by IP injection followed by LPS (10 mg/kg) by IP injection for 5 hours. Data points indicative of individual mice. **, P<0.01 (Two-way ANOVA). Error bars show means±SEM.
Conditioned media or serum was collected as indicated and IL-1β or TNF-α, were quantified by sandwich ELISA (R&D Systems).
Mice aged 8-12 weeks were administered LPS 5 mg/kg by intraperitoneal injection. Serum was collected after 5 h for ELISA analysis. For survival studies, mice were administered LPS 50 mg/kg intraperitoneally and monitored every 12 h for up to 96 h.

Experiment [3] concerns the target T1, m.GSDMD (Mus musculus, UniProt Q9D8T2).
T1 sequence (Q9D8T2 1-487): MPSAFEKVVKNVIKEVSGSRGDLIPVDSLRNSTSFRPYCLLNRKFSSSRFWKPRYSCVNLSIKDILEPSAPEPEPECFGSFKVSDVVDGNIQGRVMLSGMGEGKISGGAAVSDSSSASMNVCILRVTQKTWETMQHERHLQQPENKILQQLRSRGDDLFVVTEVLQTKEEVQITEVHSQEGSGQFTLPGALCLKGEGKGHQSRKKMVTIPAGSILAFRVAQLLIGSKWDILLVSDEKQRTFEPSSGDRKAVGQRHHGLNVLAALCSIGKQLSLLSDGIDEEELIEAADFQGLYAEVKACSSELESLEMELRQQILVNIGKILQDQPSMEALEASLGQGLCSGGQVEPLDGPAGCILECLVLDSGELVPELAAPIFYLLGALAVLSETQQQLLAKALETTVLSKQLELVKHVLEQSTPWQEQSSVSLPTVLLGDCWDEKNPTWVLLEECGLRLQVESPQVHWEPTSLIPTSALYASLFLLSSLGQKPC
Kind of experiment: In vitro succination reaction with LC-MS/MS peptide mapping. The class given is binding. As to conditions: recombinant m.GSDMD.

Experiment [4] has as its system EAE in WT mice. Kind of experiment: Experimental autoimmune encephalomyelitis (EAE). The class given is in vivo, mouse.
Where [5] appears, read: flow cytometry, spinal cord and brain.

As to `COC(=O)/C=C/C(=O)OC` [Fumarate, Dimethyl fumarate], in experiment [1], the “LPS-Nig induced LDH release” value was “blocked” and the “LPS-Nig induced cell death” value is “blocked”. The “LPS-Nig induced cell death” value in experiment [1] (listed as fumarate) was “inhibited cell death”. For the same compound, in experiment [2] (5 hours after ip LPS 5 mg/kg), the “serum IL-1β levels” value was “reduced” and the “serum TNF-α levels” value was “not”. Also, in experiment [2] (lethal dose LPS 50 mg/kg, single dose of fumarate), the survival result is “increased survival”. Moreover, in experiment [3], the “In vitro cysteine succination sites” value is “same cysteines”. Moreover, in experiment [4] (WT mice, fumarate daily after EAE induction), the “onset of EAE (clinical scores)” value is “blocked”. Besides, in experiment [4] (flow cytometry), the “Th1 (IFN-γ+) cells in the CNS” value is given as “reduced” and the “Th17 (IL-17A+) cells in the CNS” value was “reduced”. For the same compound, in experiment [4] (setting [5]), the “infiltration of CD4+ T-cells to the CNS” value was “reduced infiltration”, the “infiltration of CD8+ T-cells to the CNS” value is reported as “reduced infiltration” and the “infiltration of myeloid cells to the CNS” value is reported as “reduced infiltration”. Also, the neuropathology result in experiment [4] (spinal cord sections) is “reduced”. Also, the demyelination entry in experiment [4] (spinal cord sections, LFB) is listed as “reduced”. For the same compound, the “GSDMD-N in CNS tissue” value in experiment [4] (spinal cord, staining and immunoblot) was “reduced”.
